One experiment addresses T1, DOCK2 (Homo sapiens, UniProt Q92608).
T1 construct: polypeptide fragments corresponding to a DHR-2 domain including the lobe B and the lobe C of DOCK2; Histidine-SUMO (N); made in house; host or cells: E. coli Arctic express DE3 (pET28a); Rac in E. coli BL21 DE3 (pGEX-6P-1)
T1 sequence (Q92608 1196-1622): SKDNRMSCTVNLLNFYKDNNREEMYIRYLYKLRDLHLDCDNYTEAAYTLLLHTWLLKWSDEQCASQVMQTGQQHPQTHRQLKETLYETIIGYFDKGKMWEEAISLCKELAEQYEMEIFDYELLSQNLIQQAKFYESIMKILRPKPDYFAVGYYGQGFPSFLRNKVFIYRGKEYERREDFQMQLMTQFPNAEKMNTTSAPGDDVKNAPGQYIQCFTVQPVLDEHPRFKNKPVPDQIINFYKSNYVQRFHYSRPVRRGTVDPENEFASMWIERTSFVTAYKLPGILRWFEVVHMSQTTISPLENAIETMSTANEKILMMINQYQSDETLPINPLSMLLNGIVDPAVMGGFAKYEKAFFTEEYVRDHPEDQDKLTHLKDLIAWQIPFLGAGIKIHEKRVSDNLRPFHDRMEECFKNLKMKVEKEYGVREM
The experiment in a line: in-vitro GEF assay, Rac activation by DOCK2 (Experimental Example 1). It counts as biochemical. As to the method:
The selectivity of the effect of inhibiting the GEF of DOCK2 by cholesterol 3-sulfate was examined. All of DOCK2, Trio, and Tiam are GEFs activating Rac. In the presence of serially diluted cholesterol 3-sulfate, the Rac activation ability of a DOCK2 protein, a Trio protein, and a Tiam protein was measured by in-vitro GEF assay. For the in-vitro GEF assay, a labeled GTP (trade name, “Bodipy-FL-GTP”, manufactured by Invitrogen) was used, because it has a property of increasing fluorescence intensity when binds to Rac by the action of GEF. […]
During the reaction, the change in the fluorescence intensity of Bodipy-FL-GPT was monitored using a spectrofluorometer Enspire manufactured by PerkinElmer Inc (excitation wavelength: 488 nm, emission wavelength: 514 nm). By calculation, the values obtained by the measurement were corrected such that the fluorescence intensity became 0 at a reaction starting point (0 second).
Then, by using software (trade name “GraphPad Prism 5”, manufactured by GraphPad Software Inc.), an approximation curve was created which is obtained in a case where the calculated corrected values are plotted on the y-axis and time (t) is plotted on the x-axis. […]

The subject of experiment [1] is neutrophils derived from the mouse bone marrow. Nature of the experiment: neutrophil migration assay 2 (EZ-TAXIScan, compound added to the fMLP source). The following applies: 150 μM added to well with 3 μM fMLP, no pretreatment. It counts as cell-based. On the procedure:
An examination was performed about the influence of cholesterol 3-sulfate on the migration speed of neutrophils when the cells and the chemical migration factor (fMLP) are added to the same well without pretreating the cells. […] Phase-contrast micrographs were obtained for 40 minutes at an interval of 30 seconds and analyzed by the same method as described above. (a) to (c) of FIG. 12 are graphs and photographs showing the experiment results.

These results are taken from patent US12213984B2, “Immunoregulatory agent” (KYUSHU UNIVERSITY, NATIONAL UNIVERSITY CORPORATION, priority 2015, dated 2025).

Structures are written as SMILES.

At DOCK2, `CC(C)CCC[C@@H](C)[C@H]1CC[C@H]2[C@@H]3CC=C4C[C@@H](OS(=O)(=O)O)CC[C@]4(C)[C@H]3CC[C@]12C` [C3S, cholesterol 3-sulfate] registered an IC50 of 6.7 µM. Further, in experiment [1], the “migration of neutrophils towards fMLP source containing the compound” value is listed as “rapidly stop”.

The IC50 is the concentration that inhibits the measured activity by half. A higher IC50 goes with weaker potency.
